Laboratory results as given in the supplement of paper PMC10307832.

Columns and labels:
Assay in all cases: relative viability (nuclei count vs DMSO), 5 days (fraction); higher = more cells survive
Idelalisib + Olaparib = compound: CC[C@H](Nc1ncnc2[nH]cnc12)c1nc2cccc(F)c2c(=O)n1-c1ccccc1 [Idelalisib] + O=C(c1cc(Cc2n[nH]c(=O)c3ccccc23)ccc1F)N1CCN(C(=O)C2CC2)CC1 [Olaparib] (partner 8 µM)
Outline: (§1)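 Relative viability divides the nuclei count in treated wells by that in vehicle wells. Lung cancer cell lines were seeded in 1536-well plates, dosed by pin tool the next day, and fixed and stained after 5 days in one step with final 0.05% Triton X-100, 1% formaldehyde and 1 ug/ml Hoechst. Dosing was a single drug or a fixed anchor-drug dose plus five library-drug doses (not always all listed) in √10 steps, and values are medians of duplicate plates imaged at 4×.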

Pemetrexed + Foretinib = compound: Nc1nc2[nH]cc(CCc3ccc(C(=O)N[C@@H](CCC(=O)O)C(=O)O)cc3)c2c(=O)[nH]1 [Pemetrexed] + COc1cc2c(Oc3ccc(NC(=O)C4(C(=O)Nc5ccc(F)cc5)CC4)cc3F)ccnc2cc1OCCCN1CCOCC1 [Foretinib] (partner 0.25 µM)
Outline: as §1

Pemetrexed + Lapatinib = compound: Nc1nc2[nH]cc(CCc3ccc(C(=O)N[C@@H](CCC(=O)O)C(=O)O)cc3)c2c(=O)[nH]1 [Pemetrexed] + CS(=O)(=O)CCNCc1ccc(-c2ccc3ncnc(Nc4ccc(OCc5cccc(F)c5)c(Cl)c4)c3c2)o1 [Lapatinib] (partner 2 µM)
Outline: as §1

Pemetrexed + Tozasertib = compound: Nc1nc2[nH]cc(CCc3ccc(C(=O)N[C@@H](CCC(=O)O)C(=O)O)cc3)c2c(=O)[nH]1 [Pemetrexed] + Cc1cc(Nc2cc(N3CCN(C)CC3)nc(Sc3ccc(NC(=O)C4CC4)cc3)n2)n[nH]1 [Tozasertib] (partner 0.1 µM)
Outline: as §1

Row | Cell Line | relative viability (Idelalisib + Olaparib; first compound 0.04 µM) | relative viability (Idelalisib + Olaparib; first compound 0.1265 µM) | relative viability (Idelalisib + Olaparib; first compound 0.4 µM) | relative viability (Idelalisib + Olaparib; first compound 1.265 µM) | relative viability (Idelalisib + Olaparib; first compound 4 µM) | relative viability (Pemetrexed + Foretinib; first compound 0.006325 µM) | relative viability (Pemetrexed + Foretinib; first compound 0.02 µM) | relative viability (Pemetrexed + Foretinib; first compound 0.06325 µM) | relative viability (Pemetrexed + Foretinib; first compound 0.2 µM) | relative viability (Pemetrexed + Lapatinib; first compound 0.002 µM) | relative viability (Pemetrexed + Lapatinib; first compound 0.006325 µM) | relative viability (Pemetrexed + Lapatinib; first compound 0.02 µM) | relative viability (Pemetrexed + Lapatinib; first compound 0.06325 µM) | relative viability (Pemetrexed + Lapatinib; first compound 0.2 µM) | relative viability (Pemetrexed + Tozasertib; first compound 0.006325 µM) | relative viability (Pemetrexed + Tozasertib; first compound 0.02 µM) | relative viability (Pemetrexed + Tozasertib; first compound 0.06325 µM) | relative viability (Pemetrexed + Tozasertib; first compound 0.2 µM) | relative viability (Pemetrexed + Foretinib; first compound 0.002 µM) | relative viability (Pemetrexed + Tozasertib; first compound 0.002 µM)
1 | NCI-H1437 | 0.618 | 0.636 | 0.634 | 0.658 | 0.607 | 1.2 | 1.07 | 0.796 | 0.413 | 0.364 | 0.777 | 0.799 | 0.463 | 0.232 | 0.402 | 0.37 | 0.357 | 0.228 |  | 
2 | NCI-H1650 | 0.793 | 0.865 | 0.768 | 0.789 | 0.654 | 0.988 | 1.17 | 0.888 | 0.402 | 0.804 | 0.699 | 0.8 | 0.505 | 0.349 | 0.353 | 0.47 | 0.304 | 0.298 | 0.985 | 0.388
3 | NCI-H1651 | 0.19 | 0.171 | 0.184 | 0.161 | 0.179 | 0.772 | 0.826 | 0.754 | 0.737 | 0.9 | 0.767 | 0.819 | 0.85 | 0.725 | 0.645 | 0.703 | 0.658 | 0.644 | 0.673 | 0.684
4 | NCI-H1666 | 0.704 | 0.758 | 0.733 | 0.747 | 0.724 | 0.996 | 0.929 | 0.953 | 0.832 | 0.678 | 0.647 | 0.566 | 0.575 | 0.394 | 0.554 | 0.633 | 0.593 | 0.598 | 0.942 | 0.582
5 | NCI-H1734 | 0.578 | 0.578 | 0.561 | 0.607 | 0.704 | 0.77 | 0.976 | 0.794 | 0.532 | 0.724 | 0.995 | 1.13 | 1.01 | 0.525 | 0.221 | 0.268 | 0.284 | 0.248 | 0.871 | 0.249
6 | NCI-H1755 | 0.881 | 0.892 | 0.842 | 0.801 | 0.821 | 0.925 | 0.94 | 0.923 | 0.849 | 0.808 | 1 | 1.03 | 1.04 | 0.894 | 0.571 | 0.619 | 0.615 | 0.458 | 0.871 | 0.575
7 | NCI-H1793 | 0.957 | 0.764 |  | 0.566 | 0.529 | 0.575 | 0.733 | 0.465 | 0.749 | 0.543 | 0.769 | 0.619 | 0.704 | 0.619 | 0.286 | 0.402 | 0.323 | 0.403 | 0.844 | 0.3
8 | NCI-H1915 | 0.252 | 0.241 | 0.276 | 0.264 | 0.27 | 1.05 | 1.11 | 1.07 | 1.11 | 0.945 | 0.988 | 1.1 | 0.987 | 0.971 | 0.439 | 0.45 | 0.417 | 0.425 | 1.04 | 0.403
